Laboratory results published in US20230374462A1, “METHOD FOR PRODUCING MYOCARDIAL STEM/PROGENITOR CELL AND METHOD FOR SUPPRESSING MYOCARDIAL FIBROSIS” (priority 2020, published 2023).

Legend:
[1] = test system: primary human cardiomyocytes (HCM); test: Long-term culture with low-speed imaging of cardiomyocytes in presence of low molecular weight compound; type: cell-based; settings: for long-term culture (proliferation): HCM, FIG. 1B; for cell morphology of cardiomyocytes: long-term culture, FIG. 1A
Experimental: (§1) The subcultured human cardiomyocytes were seeded at 0.5×10^2 cells/cm^2 on a 35 mm plate (IWAKI) containing: 3 mL of a Vascular Smooth Muscle Cell growth medium containing 3-(6-methyl-2-pyridinyl)-n-phenyl-4-(4-quinolinyl)-1H-pyrazole-1-carbothioamide (A-83-01: A) (final concentration: 1 AM) as a low molecular weight compound TGFβ receptor inhibitor or (1R,4r)-4-((R)-1-aminoethyl)-N-(pyridin-4-yl)cyclohexanecarboxamide (Y-27632: Y) (final concentration: 10 AM) as a ROCK inhibitor, both of the compounds A-83-01 and Y-27632, or free of them: or a Myocyte basal medium. On Day 3, the Vascular Smooth Muscle Cell growth medium containing each low molecular weight compound or the Myocyte basal medium was replaced. Thereafter, the medium was replaced in the same manner every three days.
After the medium replacement, low-speed imaging was performed using a BZ9000 all-in-one fluorescence microscope (KEYENCE). In addition, the individual cells were tracked throughout the imaging period (110 days), and the final number of cells derived from each cell was measured.

HCM cells [2] = test: Quantitative RT-PCR of progenitor, maturation and senescence markers; type: cell-based, human; settings: for number of cell death due to the treatment: concluded from senescence markers
Experimental: as §1
(§2) Total RNA was isolated from each cardiomyocyte 1 month and 2 months after culture in the presence of the test low molecular weight compound using miRNeasy Mini Kit (QIAGEN). Reverse transcription reactions were performed using High-Capacity cDNA Reverse Transcription Kit Lifetechnologies according to manufacturer's guidelines. PCR was performed using the obtained cDNA as a template and a Taqman Probe (ThermoFisher). An expression level of a target gene was standardized with β-actin as an endogenous control.

PC-100-021 cells [3] = test: as above; type: cell-based, human; settings: for number of cell death due to the treatment: concluded from senescence markers
Experimental: as §1, §2

HCM cells [4] = test: Western blot of endothelial cell marker (CD31) and muscle cell marker (Troponin T); type: cell-based, human; settings: FIG. 3B
Description: (§3) FIG. 3 A: Graphs showing mRNA expression of the myocardial progenitor cell markers (GATA4 and VCAM-1), the maturation marker (MYL2), and senescence markers (CDKN1A and CDKN2A) for cardiomyocytes, in the cardiomyocytes treated with the TGFβ receptor inhibitor (A) or the ROCK inhibitor (Y). In each graph, the vertical axis represents the expression amount (Relative mRNA expression) of each mRNA when the expression amount of the cells before culture is 1, and the numerical values on the horizontal axis represent culture periods (day). B: Photographs showing the results of confirming, by Western blot, loss of the expression of an endothelial cell marker (CD31), and expression of a muscle cell marker (Troponin T) and Actin, in primary human cardiomyocytes (HCM) or primary human coronary artery smooth muscle cells (PC-100-021) treated with the TGFβ receptor inhibitor (A) or the ROCK inhibitor (Y). NT indicates an agent-untreated control, and HUVEC indicates a result of using human umbilical vein endothelial cells (CD31-positive as the endothelial cell marker).

PC-100-021 cells [5] = test: as above; type: cell-based, human; settings: FIG. 3B
Description: as §3

[6] = test system: primary human coronary artery smooth muscle cells (PC-100-021); test: Long-term culture with low-speed imaging in presence of low molecular weight compound; type: cell-based; settings: FIG. 1C
[7] = 1 and 2 months culture, vs agent untreated group, FIG. 2
[8] = culture periods in days, FIG. 3A

Structure (SMILES)	long-term culture (proliferation) [1]	cell morphology of cardiomyocytes [1]	decrease in progenitor cell markers (GATA4 and VCAM-1) mRNA during culture (HCM cells [2]; [7])	increase in maturation marker (MYL2) mRNA during culture (HCM cells [2]; [7])	expression of senescence markers (CDKN1A and CDKN2A) mRNA (HCM cells [2]; FIG. 3A)	number of cell death due to the treatment (HCM cells [2])	decrease in progenitor cell markers (GATA4 and VCAM-1) mRNA during culture (HCM cells [2]; [8])	increase in maturation marker (MYL2) mRNA during culture (HCM cells [2]; [8])	decrease in progenitor cell markers (GATA4 and VCAM-1) mRNA during culture (PC-100-021 cells [3]; [7])	increase in maturation marker (MYL2) mRNA during culture (PC-100-021 cells [3]; [7])	expression of senescence markers (CDKN1A and CDKN2A) mRNA (PC-100-021 cells [3]; FIG. 3A)	number of cell death due to the treatment (PC-100-021 cells [3])	decrease in progenitor cell markers (GATA4 and VCAM-1) mRNA during culture (PC-100-021 cells [3]; [8])	increase in maturation marker (MYL2) mRNA during culture (PC-100-021 cells [3]; [8])	expression of endothelial cell marker (CD31) (HCM cells [4])	expression of muscle cell marker (HCM cells [4])	expression of endothelial cell marker (CD31) (PC-100-021 cells [5])	expression of muscle cell marker (PC-100-021 cells [5])	long-term culture (proliferation) [6]
C[C@@H](N)[C@H]1CC[C@H](C(=O)Nc2ccncc2)CC1 [Y-27632, (1R,4r)-4-((R)-1-aminoethyl)-N-(pyridin-4-yl)cyclohexanecarboxamide]	long-term culture was induced	maintained the original cell morphology	suppressed	suppressed	hardly expressed	small	suppressed	suppressed	suppressed	suppressed	hardly expressed	small	suppressed	suppressed	not expressed	expressed	not expressed	expressed	
Cc1cccc(-c2nn(C(=S)Nc3ccccc3)cc2-c2ccnc3ccccc23)n1 [A-83-01, 3-(6-methyl-2-pyridinyl)-n-phenyl-4-(4-quinolinyl)-1H-pyrazole-1-carbothioamide]	long-term culture was induced	maintained the original cell morphology	promoted	promoted	hardly expressed	small		promote	promoted	promoted	hardly expressed	small		promote	not expressed	expressed	not expressed	expressed	long-term culture was induced
